Test results reported in paper PMC5086648, “Structural and Functional Elucidation of Peptide Ts11 Shows Evidence of a Novel Subfamily of Scorpion Venom Toxins” (Toxins, 2016).
Bridge positions count the residues as written; N and C are the ends. Peptide text beside a SMILES is read from it.

Tests used:
[1] = tested on: Shaker IR; test: TEVC electrophysiology, Shaker IR in Xenopus oocytes; assay type: cell-based; settings: 3 μM, native toxin, two-electrode voltage-clamp, ND96 pH 7.4, 18–22 °C, 250 ms depolarizations to 0 mV from −90 mV, n ≥ 3
Description: (§1) For the expression of the voltage gated potassium channels (rKV1.1, rKV1.2, hKV1.3, rKV1.4, rKV1.5, rKV1.6, Shaker IR, rKV2.1, hKV3.1, rKV4.2, hERG, KV10.1) and the voltage gated sodium channels (rNaV1.1, rNaV1.4, hNaV1.5, mNaV1.6 and DmNav1) in Xenopus oocytes, the linearized plasmids were transcribed using the T7 or SP6 mMESSAGE-mMACHINE transcription kit (Ambion, Waltham, MA, USA). The harvesting of stage V–VI oocytes from anaesthetized female X. laevis frog has been previously described. Oocytes were injected with 30–50 nL of cRNA at a concentration of 1 ng/nL using a micro-injector (Drummond Scientfic, Broomall, PA, USA). The oocytes were incubated in a solution containing (in mM): NaCl, 96; KCl, 2; CaCl2, 1.8; MgCl2, 2 and HEPES, 5 (pH 7.4), supplemented with 50 mg/L gentamycin sulfate.
(§2) Two-electrode voltage-clamp recordings were performed at room temperature (18–22 °C) using a Geneclamp 500 amplifier (Molecular Devices, Silicon Valley, CA, USA) controlled by a pClamp data acquisition system (Axon Instruments, Union City, CA, USA). Whole cell currents from oocytes were recorded 1–10 days after injection. Bath solution composition was ND96 (in mM): NaCl, 96; KCl, 2; CaCl2, 1.8; MgCl2, 2 and HEPES, 5 (pH 7.4) (in mM): NaCl, 2; KCl, 96; CaCl2, 1.8; MgCl2, 2 and HEPES, 5 (pH 7.4). […]

[2] = tested on: Nav1.6 (mNaV1.6); test: TEVC electrophysiology, Nav1.6 in Xenopus oocytes; assay type: cell-based, mouse; settings: 1 μM, two-electrode voltage-clamp, 100 ms depolarization to 0 mV from −90 mV, number of cells ≥ 3
Description: as §1, §2

[3] = tested on: Nav1.5 (hNaV1.5); test: TEVC electrophysiology, Nav1.5 in Xenopus oocytes; assay type: cell-based, human; settings: 1 μM, two-electrode voltage-clamp, 100 ms depolarization to 0 mV from −90 mV, number of cells ≥ 3
Description: as §1, §2

[4] = tested on: Kv1.2 (rKV1.2); test: TEVC electrophysiology, Kv1.2 in Xenopus oocytes; assay type: cell-based, rat
Description: as §1, §2

[5] = tested on: Kv10.1; test: TEVC electrophysiology, Kv10.1 in Xenopus oocytes; assay type: cell-based; settings: 3 μM, native toxin, two-electrode voltage-clamp, ND96 pH 7.4, 18–22 °C, 1 s depolarization to 0 mV from −90 mV, n ≥ 3
Description: as §1, §2

[6] = tested on: DmNav1; test: TEVC electrophysiology, DmNav1 in Xenopus oocytes; assay type: cell-based, insect; settings: 1 μM, two-electrode voltage-clamp, 100 ms depolarization to 0 mV from −90 mV, number of cells ≥ 3
Description: as §1, §2

[7] = tested on: Kv4.2 (rKV4.2); test: TEVC electrophysiology, Kv4.2 in Xenopus oocytes; assay type: cell-based, rat
Description: as §1, §2

[8] = tested on: Nav1.1 (rNaV1.1); test: TEVC electrophysiology, Nav1.1 in Xenopus oocytes; assay type: cell-based, rat; settings: 1 μM, two-electrode voltage-clamp, 100 ms depolarization to 0 mV from −90 mV, number of cells ≥ 3
Description: as §1, §2

[9] = tested on: hERG; test: TEVC electrophysiology, hERG in Xenopus oocytes; assay type: cell-based
Description: as §1, §2

[10] = tested on: Kv channels; test: TEVC electrophysiology, Kv channel panel in Xenopus oocytes; assay type: cell-based; settings: discussion, Kv channels overall
Description: as §1, §2

[11] = tested on: Nav channels; test: TEVC electrophysiology, Nav channel panel in Xenopus oocytes; assay type: cell-based; settings: discussion; tested at 1 μM
Description: as §1, §2

[12] = tested on: Nav1.4 (rNaV1.4); test: TEVC electrophysiology, Nav1.4 in Xenopus oocytes; assay type: cell-based, rat; settings: 1 μM, two-electrode voltage-clamp, 100 ms depolarization to 0 mV from −90 mV, number of cells ≥ 3
Description: as §1, §2

[13] = molecular target: T1, Kv1.3 (hKV1.3) (Homo sapiens, UniProt P22001); test: TEVC electrophysiology, Kv1.3 in Xenopus oocytes; assay type: cell-based
T1 construct: expressed in transfected cells; host or cells: Xenopus laevis oocytes injected with cRNA
T1 sequence (P22001 whole entry): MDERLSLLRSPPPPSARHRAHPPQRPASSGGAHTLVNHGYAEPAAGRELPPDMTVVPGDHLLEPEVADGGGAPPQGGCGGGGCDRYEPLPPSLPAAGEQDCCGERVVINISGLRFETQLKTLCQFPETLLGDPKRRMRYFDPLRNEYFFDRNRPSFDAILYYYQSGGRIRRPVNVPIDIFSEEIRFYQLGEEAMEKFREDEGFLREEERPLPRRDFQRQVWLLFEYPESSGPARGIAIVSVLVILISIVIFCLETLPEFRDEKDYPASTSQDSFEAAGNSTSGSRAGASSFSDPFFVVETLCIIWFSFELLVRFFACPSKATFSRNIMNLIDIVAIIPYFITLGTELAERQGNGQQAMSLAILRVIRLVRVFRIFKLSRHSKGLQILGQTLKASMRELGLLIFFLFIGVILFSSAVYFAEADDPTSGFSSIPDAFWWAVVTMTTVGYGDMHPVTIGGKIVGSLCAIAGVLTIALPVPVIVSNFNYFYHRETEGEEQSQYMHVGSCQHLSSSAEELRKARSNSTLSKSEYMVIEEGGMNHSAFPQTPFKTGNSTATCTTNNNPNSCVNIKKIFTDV
Description: as §1
Two-electrode voltage-clamp recordings were performed at room temperature (18–22 °C) using a Geneclamp 500 amplifier (Molecular Devices, Silicon Valley, CA, USA) controlled by a pClamp data acquisition system (Axon Instruments, Union City, CA, USA). Whole cell currents from oocytes were recorded 1–10 days after injection. Bath solution composition was ND96 (in mM): NaCl, 96; KCl, 2; CaCl2, 1.8; MgCl2, 2 and HEPES, 5 (pH 7.4) (in mM): NaCl, 2; KCl, 96; CaCl2, 1.8; MgCl2, 2 and HEPES, 5 (pH 7.4). Voltage and current electrodes were filled with KCl 3 M. Resistances of both electrodes were kept between […]. The elicited currents were sampled at 1 kHz and filtered at 0.5 kHz (for potassium currents) or sampled at 20 kHz and filtered at 2 kHz (for sodium currents) using a four-pole low-pass Bessel filter. Leak subtraction was performed using a -P/4 protocol.
The KV1.1–KV1.6, KV2.1, KV3.1 and KV4.2 and Shaker IR currents were evoked by 250 ms depolarizations to 0 mV followed by a 250 ms pulse to −50 mV, from a holding potential of −90 mV. Current traces of hERG channels were elicited by applying a pulse from −90 mV to +40 mV for 2.5 s followed by a step to −120 mV for 2.5 s. The Kv 10.1 currents were evoked by 1 s depolarization to 0 mV, from a holding potential of −90 mV. Sodium current traces were evoked, from a holding potential of −90 mV, by 100 ms depolarization to 0 mV. In order to investigate the current-voltage relationship, current traces were evoked by 10 mV depolarization steps from a holding potential of −90 mV.
To assess the concentration-response relationship of Ts11 on Kv1.3, data were fitted with the Hill equation: y = 100/[1 + (IC50/[toxin])^h], where y is the amplitude of the toxin-induced effect, IC50 is the toxin concentration at half maximal efficacy, [toxin] is the toxin concentration and h is the Hill coefficient (Hill coefficient: 0.8). Current-voltage relationship was determined by 100 ms step depolarization between −90 and +70 mV, using 10 mV increments. All data represent at least 3 independent experiments (n = 3) and are presented as mean ± standard error.

[14] = 3 μM, native toxin, two-electrode voltage-clamp, Xenopus oocytes, ND96 pH 7.4, 18–22 °C, 250 ms depolarizations to 0 mV from −90 mV, n ≥ 3
[15] = 5 μM, compared with 3 μM, data not shown

CC(C)C[C@@H]1NC(=O)CNC(=O)[C@@H](NC(=O)[C@H](CCCCN)NC(=O)[C@@H]2CCCN2C(=O)[C@@H](N)CCCCN)CSSC[C@@H]2NC(=O)[C@@H]3CSSC[C@@H]4NC(=O)[C@H](CCCCN)NC(=O)CNC(=O)[C@H](CO)NC(=O)[C@H](CO)NC(=O)[C@H](CSSC[C@H](NC(=O)[C@H](C)NC(=O)CNC(=O)[C@H](CC(N)=O)NC(=O)[C@H](C(C)C)NC4=O)C(=O)N[C@@H](CC(=O)O)C(=O)N[C@H](C(=O)N[C@@H](CO)C(=O)O)CSSC[C@H](NC1=O)C(=O)N[C@@H](CCCNC(=N)N)C(=O)N[C@@H](Cc1ccc(O)cc1)C(=O)N[C@@H](CCCNC(=N)N)C(=O)N3)NC(=O)CNC(=O)CNC(=O)[C@H](CO)NC2=O [Ts11] (H-KPKCGLCRYRCCSGGCSSGKCVNGACDCS-OH; disulfide 4-12, 7-28, 11-21, 16-26; N-terminus and C-terminus assumed)
blocking effect on Shaker IR [1]: 10%
activity on Nav1.6 [2]: inactive
activity on Nav1.5 [3]: inactive
blocking effect on Kv1.2 [4, 14]: 25%
increase in blockage at higher concentration, Kv1.2 [4, 15]: no significant increase in blockage
blocking effect on Kv10.1 [5]: 15%
activity on insect channel DmNav1 [6]: inactive
blocking effect on Kv4.2 [7, 14]: 25%
increase in blockage at higher concentration, Kv4.2 [7, 15]: no significant increase in blockage
activity on Nav1.1 [8]: inactive
blocking effect on hERG ([9]; 3 μM, native toxin, two-electrode voltage-clamp, Xenopus oocytes, pH 7.4, 18–22 °C, pulse −90 mV to +40 mV for 2.5 s, step to −120 mV for 2.5 s, n ≥ 3): 12%
increase in blockage at higher concentration, hERG ([9]; 10 μM, compared with 3 μM, data not shown): no significant increase in blockage
effect on kinetics of Kv channel gating [10]: without altering the kinetics of channel gating
potency as Kv channel blocker (in words) [10]: not a potent blocker of Kv channels
activity on Nav channels overall (in words) [11]: does not target Nav channels
activity on Nav1.4 [12]: inactive
blocking effect on Kv1.3 [13, 14]: 27%
alteration of channel activation properties (Kv1.3) ([13]; 5 μM, V1/2 with toxin vs control): No significant alteration of properties of channel activation
Hill coefficient, Kv1.3 ([13]; concentration-response fit, Hill equation, n ≥ 3): 0.8
IC50 ([13]; concentration-response, Hill equation fit, two-electrode voltage-clamp, Xenopus oocytes, pH 7.4, 18–22 °C, mean ± standard error, n ≥ 3, read-out: IC50, inhibition of Kv1.3 currents): 17.1 ± 3.3 µM
V1/2 of Kv1.3 activation ([13]; toxin condition, 5 μM (Figure 3B), normalized peak Itail, control 17.3 ± 0.6 mV, n ≥ 3, mean ± standard error): 17.6 ± 0.7 mV
